Test results as given in patent US20120171166A1, “SYNBIOTIC COMBINATION OF PROBIOTIC AND HUMAN MILK OLIGOSACCHARIDES TO PROMOTE GROWTH OF BENEFICIAL MICROBIOTA” (ABBOTT LABORATORIES, priority 2010, published 2012).
“Also recorded” adds a separate entry of the source.

Tests used:
B. infantis ATCC 15697 = assay: Bacterial growth assay (OD600), B. infantis ATCC 15697; assay type: cell-based, Bifidobacterium infantis; details: 1% carbohydrate in sMRS+cysteine
Protocol: (§1) All bifidobacteria strains are initially inoculated from frozen stocks, grown in deMan Rogosa Sharpe (MRS) broth (Difco, Detroit, Mich.) supplemented with 0.5 g/L L-cysteine and incubated at 37° C. for 24 h in an anaerobic chamber (90% N2, 5% CO2 and 5% H2). Subsequently, the cultures are passed twice on a semi-synthetic MRS medium (sMRS)+0.5 g/L L-cysteine which is supplemented with 1% (w/v) filter-sterilized glucose as the sole carbohydrate source. After the 2nd pass, cultures are prepared to use as inoculums for growth assays described below. For bifidobacteria strains, the same procedure is followed except all media are supplemented with 0.5 g/l L-cysteine/HCl.
(§2) After the 2nd pass in sMRS+glucose+cysteine, the cultures are washed once with 10 mL of sterile sMRS+cysteine (no carbohydrate), resuspended in 10 ml of sterile sMRS+cysteine (no carbohydrate) and then used as a 1% inoculum. The carbohydrates are sterilized with a 0.22 micron filter and used at a 1% final concentration. Cell growth is performed in 250 μL of sMRS+cysteine covered with 50 μL of mineral oil in a Bioscreen 100-well Honeycomb plate. Cell growth is monitored by measuring optical density at 600 nm (OD600) using a Bioscreen C Automated Microbiology Growth Curve Analysis System. The plate reader is operated in discontinuous mode, with absorbance readings performed in 30-minute intervals, and preceded by 30-second shaking intervals at maximum speed. Controls consist of inoculated medium lacking carbohydrate. Due to space limitations on the microtitre plate, the carbohydrates are divided into three separate groups: plate A (HMO precursors: glucose, galactose, lactose, NAG, fucose, fructose and sialic acid), plate B (Prebiotics: glucose, Purimune™ GOS, purified Purimune™ GOS, Vivinal® GOS, purified Vivinal® GOS, scFOS and PDX), and plate C (HMOs: glucose, 6′-SL, 3′-SL, 2′-FL, 3′-FL and LNnT). All three plates include a positive control (glucose) and negative control (no carbohydrate).
(§3) The OD600 data for each carbohydrate is corrected by subtracting the OD600 of the basal media (sMRS) from the sample plate for each probiotic. Maximum OD is determined by inspection of the corrected growth data. OD is determined by subtracting the initial corrected OD (time point 0) from the maximum corrected OD. Samples are grown in biologically independent triplicates and the resulting growth kinetic data are expressed as the mean of these replicates.
(§4) For the growth curve plots, OD600 vs. time is first plotted for the bacteria grown on medium lacking carbohydrate (sMRS). For all other carbohydrates, the OD600 data is corrected by subtracting the OD600 of sMRS.

[1] = tested on: infant fecal inoculum (diluted feces); assay: In vitro fermentation model simulating large bowel fermentation with infant fecal inoculum (Example 36); assay type: cell-based, human infant; details: for pH change from baseline: at 3, 6, and 12 h after inoculation, comparison among substrates (P<0.0001)
[2] = tested on: Bifidobacterium spp. (12 bifidobacteria strains); assay: Bacterial growth assay (OD600), all bifidobacteria strains tested (Example 37); assay type: cell-based; details: for growth / ability to ferment the carbohydrate (OD600): carbohydrate at 1% final concentration in sMRS+cysteine, all bifidobacteria tested
Protocol: as §1, §2, §3, §4

B. infantis M-63 = assay: Bacterial growth assay (OD600), B. infantis M-63; assay type: cell-based, Bifidobacterium infantis; details: 1% carbohydrate in sMRS+cysteine
Protocol: as §1, §2, §3, §4

enteric nerve cells = assay: Peristalsis model using luminally perfused mouse colon (Example 35); details: colon muscle perfused at 1, 0.5 and 0.1 mg/mL for 15 minutes; for stimulation of enteric nerve cells: without involving gut microbiota and/or their metabolites
Protocol: In this Example, the effect of 2′-fucosyllactose (2′FL) or 3′ fucosyllactose (3′FL) on stimulating enteric nerve cells in the gastrointestinal tract of rodents is analyzed.
Specifically, a peristalsis model using luminally perfused mouse colon is used to test the stimulation effect of 2′FL or 3′FL on enteric nerve cells. Colon muscle is perfused with 2′FL or 3′FL, at concentrations of 1 mg/mL, 0.5 mg/mL, and 0.1 mg/mL, for 15 minutes. The frequency and amplitude of contractions of the muscle is analyzed.

B. breve ATCC 15700 = assay: Bacterial growth assay (OD600), B. breve ATCC 15700; assay type: cell-based, Bifidobacterium breve; details: 1% carbohydrate in sMRS+cysteine
Protocol: as §1
After the 2nd pass in sMRS+glucose+cysteine, the cultures are washed once with 10 mL of sterile sMRS+cysteine (no carbohydrate), resuspended in 10 ml of sterile sMRS+cysteine (no carbohydrate) and then used as a 1% inoculum. The carbohydrates are sterilized with a 0.22 micron filter and used at a 1% final concentration. […] Cell growth is monitored by measuring optical density at 600 nm (OD600) using a Bioscreen C Automated Microbiology Growth Curve Analysis System. The plate reader is operated in discontinuous mode, with absorbance readings performed in 30-minute intervals, and preceded by 30-second shaking intervals at maximum speed. […]

Compound	growth / ability to ferment the carbohydrate (OD600) (B. infantis ATCC 15697)	fermentation rate class (rapidly-, medium-, slowly-fermented oligosaccharide) [1]	growth / ability to ferment the carbohydrate (OD600) [2]	growth / ability to ferment the carbohydrate (OD600) (B. infantis M-63)	fermentation rate [1]	further results
3′-fucosyllactose [3′FL]	able to ferment	Medium-fermented	only B. infantis ATCC 15697 and B. infantis M-63 are able to ferment	able to ferment		amplitude of contraction (enteric nerve cells): reduced consistently and in a dose response fashion; effectiveness on gut motility, 3′FL compared with 2′FL (enteric nerve cells): more effective than 2′FL; frequency of contraction (enteric nerve cells): reduced consistently and in a dose response fashion; stimulation of enteric nerve cells (enteric nerve cells): direct stimulation of nerve cells
C[C@H](O)[C@@H](O)[C@@H](O)[C@H](O)C=O [L-fucose, L-(−) Fucose]	not able to ferment		None of the bifidobacteria are able to ferment	not able to ferment		
CC(=O)N[C@H]1[C@H]([C@H](O)[C@H](O)CO)O[C@@](O[C@H]2[C@@H](O)[C@@H](CO)O[C@@H](O[C@H]3[C@H](O)[C@@H](O)C(O)O[C@@H]3CO)[C@@H]2O)(C(=O)O)C[C@@H]1O (stereo partly shown) [3′SL, 3′-sialyllactose]	able to ferment	Medium-fermented	only B. infantis ATCC 15697 and B. infantis M-63 are able to ferment	able to ferment		
CC(=O)N[C@H]1[C@H]([C@H](O)[C@H](O)CO)OC(O)(C(=O)O)C[C@@H]1O (stereo partly shown) [sialic acid, N-acetylneuraminic acid]	not able to ferment		None of the bifidobacteria are able to ferment	not able to ferment		
O=C(CO)[C@@H](O)[C@H](O)[C@H](O)CO [fructose, D-Fructose]			majority of bifidobacteria is able to ferment			
CC(=O)N[C@H]1[C@H]([C@H](O)[C@H](O)CO)O[C@@](OC[C@H]2O[C@@H](O[C@H]3[C@H](O)[C@@H](O)[C@H](O)O[C@@H]3CO)[C@H](O)[C@@H](O)[C@H]2O)(C(=O)O)C[C@@H]1O [6′SL, 6′-sialyllactose]	able to ferment	Medium-fermented	only B. infantis ATCC 15697 and B. infantis M-63 are able to ferment	able to ferment	about 1,809 μg/g of dry matter/hour	total SCFA production ([1]; 12 h of fermentation): greater (P<0.05) for the 6′SL and GOS substrates compared to 2′FL; total SCFA production ([1]; after 3 and 6 h of fermentation): lower (P<0.05) with 6′SL compared to GOS
2′-fucosyllactose [2′FL]	able to ferment		only B. infantis ATCC 15697 and B. infantis M-63 are able to ferment	able to ferment	about 4,872 μg/g of dry matter/hour	pH change from baseline [1]: greatest; amplitude of contraction (enteric nerve cells): reduced consistently and in a dose response fashion; frequency of contraction (enteric nerve cells): reduced consistently and in a dose response fashion; stimulation of enteric nerve cells (enteric nerve cells): direct stimulation of nerve cells; stimulation of enteric nerve cells (enteric nerve cells; listed as 2′-fucosyllactose): stimulates enteric nerve cells
CC(=O)N[C@H]1C(O)O[C@H](CO)[C@@H](O)[C@@H]1O (stereo partly drawn) [NAG, N-acetyl-D-glucosamine]			Only B. breve ATCC 15700 is able to ferment			growth / ability to ferment the carbohydrate (OD600) (B. breve ATCC 15700): able to ferment
OC[C@H]1O[C@@H](O[C@H]2[C@H](O)[C@@H](O)[C@@H](O)O[C@@H]2CO)[C@H](O)[C@@H](O)[C@H]1O [lactose, α-Lactose]						growth on the carbohydrate (OD600) ([2]; 1% carbohydrate, bifidobacteria which are not able to ferment galactose): reduced growth
CC(=O)N[C@H]1[C@H](O[C@H]2[C@@H](O)[C@@H](CO)O[C@@H](O[C@H]3[C@H](O)[C@@H](O)C(O)O[C@@H]3CO)[C@@H]2O)O[C@H](CO)[C@@H](O[C@@H]2O[C@H](CO)[C@H](O)[C@H](O)[C@H]2O)[C@@H]1O (mixture of isomers) [LNnT, Lacto-N-Neotetraose]	grow well; also recorded: able to ferment			grow well; also recorded: able to ferment	about 4,488 μg/g of dry matter/hour	pH change from baseline [1]: greatest; growth / ability to ferment the carbohydrate (OD600) (B. breve ATCC 15700): grow well; also recorded: able to ferment
